In EPA's ToxValDB 9.5 (doi:10.2903/j.efsa.2016.4515):
Converted amounts (≈) assume the structure as drawn.

Tests used:
[1] = test system: Anas platyrhynchos; settings: chronic/long-term
[2] = test system: Apis mellifera; settings: acute, mortality
[3] = test system: Bibionidae; settings: chronic/long-term, other
[4] = test system: Colinus virginianus; settings: acute, oral, mortality
[5] = test system: Folsomia candida; settings: chronic/long-term; mortality
[6] = test system: Neomysis kadiakensis; settings: chronic/long-term; duration: 28 days; reproduction
[7] = test system: Oncorhynchus mykiss
[8] = test system: Rattus norvegicus
[9] = test system: Tagia sp.
[10] = test system: Aphidius rhopalosiphi; assay: LR50; higher = less toxic; settings: not reported; other

In the case of `CO/C=C(/C(=O)OC)c1ccccc1COc1cccc(C(F)(F)F)n1` [Picoxystrobin], the NOEL [1] is reported as 110 mg/kg-day, the LD50 ([2]; dermal) is reported as greater than 200 µg/piece and the LD50 ([2]; oral, unspecified) is reported as greater than 200 µg/piece. For the same compound, the NOEC ([3]; duration: 21 days) was 0.0084 mg/L, the NOEC ([3]; duration: 28 days) was 5 mg/kg and the LD50 ([4]; diet) was greater than 1770 mg/kg-day. It also gave an LD50 [4] greater than 2250 mg/kg, an NOEC [5] of 12.5 mg/kg and an NOEC [6] of 0.0036 mg/L. The LC50 ([7]; acute, duration: 96 hours, mortality) was 0.05 µg/mL (≈ 0.136 µM), the NOEC ([7]; chronic/long-term, duration: 28 days, growth) was 0.01 mg/L and the LD50 ([8]; acute, mortality) was greater than 5000 mg/kg. The NOAEL ([8]; chronic) was 21.8 mg/kg-day, the LC50 ([9]; acute, mortality) was 3.35 mg/kg and the NOEC ([9]; chronic/long-term, reproduction) was 0.315 mg/kg. It also gave an LR50 [10] of 0.675 g/ha.
